Reference: ChEMBL document CHEMBL4004838, “Design and synthesis of novel phenyl -1, 4-beta-carboline-hybrid molecules as potential anticancer agents” (Eur J Med Chem, 2017)

Columns and labels:
Assay type in all cases: functional
[1] = system: MDA-MB-435; assay: Growth inhibition of human MDA-MB-435 cells incubated for 48 hrs by sulforhodamine B assay; conditions: MDA-MB-435, 48 h
[2] = system: OVCAR-4; assay: Growth inhibition of human OVCAR4 cells assessed as cell growth at 0.1 uM incubated for 48 hrs by sulforhodamine B assay relative to control; conditions: OVCAR-4, 48 h, read-out: Activity
[3] = system: NCI-H322M; assay: Growth inhibition of human NCI-H322M cells assessed as cell growth at 100 uM incubated for 48 hrs by sulforhodamine B assay relative to control; conditions: read-out: Activity
[4] = system: SK-OV-3; assay: Growth inhibition of human SKOV3 cells assessed as cell growth at 0.01 uM incubated for 48 hrs by sulforhodamine B assay relative to control; conditions: SK-OV-3, 48 h, read-out: Activity
[5] = system: MDA-MB-435; assay: Growth inhibition of human MDA-MB-435 cells assessed as cell growth at 1 uM incubated for 48 hrs by sulforhodamine B assay relative to control; conditions: MDA-MB-435, 48 h, read-out: Activity
[6] = system: SF-295; assay: Growth inhibition of human SF295 cells assessed as cell growth at 0.01 uM incubated for 48 hrs by sulforhodamine B assay relative to control; conditions: SF-295, 48 h, read-out: Activity
[7] = system: MDA-MB-468; assay: Growth inhibition of human MDA-MB-468 cells assessed as cell growth at 1 uM incubated for 48 hrs by sulforhodamine B assay relative to control; conditions: MDA-MB-468, 48 h, read-out: Activity
[8] = system: MOLT-4; assay: Growth inhibition of human MOLT4 cells assessed as cell growth at 100 uM incubated for 48 hrs by sulforhodamine B assay relative to control; conditions: MOLT-4, 48 h, read-out: Activity
[9] = system: 786-0; assay: Growth inhibition of human 786-0 cells assessed as cell growth at 0.1 uM incubated for 48 hrs by sulforhodamine B assay relative to control; conditions: 786-0, 48 h, read-out: Activity
[10] = system: HOP-62; assay: Growth inhibition of human HOP62 cells assessed as cell growth at 1 uM incubated for 48 hrs by sulforhodamine B assay relative to control; conditions: HOP-62, 48 h, read-out: Activity
[11] = system: BT-549; assay: Growth inhibition of human BT549 cells assessed as cell growth at 0.01 uM incubated for 48 hrs by sulforhodamine B assay relative to control; conditions: BT-549, 48 h, read-out: Activity
[12] = system: M14; assay: Growth inhibition of human M14 cells assessed as cell growth at 0.01 uM incubated for 48 hrs by sulforhodamine B assay relative to control; conditions: M14, 48 h, read-out: Activity
[13] = system: UACC-257; assay: Growth inhibition of human UACC257 cells assessed as cell growth at 0.1 uM incubated for 48 hrs by sulforhodamine B assay relative to control; conditions: UACC-257, 48 h, read-out: Activity
[14] = system: OVCAR-3; assay: Growth inhibition of human OVCAR3 cells assessed as cell growth at 0.1 uM incubated for 48 hrs by sulforhodamine B assay relative to control; conditions: OVCAR-3, 48 h, read-out: Activity
[15] = system: SF-268; assay: Growth inhibition of human SF268 cells assessed as cell growth at 1 uM incubated for 48 hrs by sulforhodamine B assay relative to control; conditions: SF-268, 48 h, read-out: Activity
[16] = system: HCT-116; assay: Growth inhibition of human HCT116 cells assessed as cell growth at 100 uM incubated for 48 hrs by sulforhodamine B assay relative to control; conditions: HCT-116, 48 h, read-out: Activity
[17] = system: BT-549; assay: Growth inhibition of human BT549 cells incubated for 48 hrs by sulforhodamine B assay; conditions: BT-549, 48 h
[18] = system: LOX IMVI; assay: Growth inhibition of human LOXIMVI cells assessed as cell growth at 1 uM incubated for 48 hrs by sulforhodamine B assay relative to control; conditions: read-out: Activity
[19] = system: MCF7; assay: Growth inhibition of human MCF7 cells assessed as cell growth at 0.1 uM incubated for 48 hrs by sulforhodamine B assay relative to control; conditions: MCF7, 48 h, read-out: Activity
[20] = system: 786-0; assay: Growth inhibition of human 786-0 cells assessed as cell growth at 100 uM incubated for 48 hrs by sulforhodamine B assay relative to control; conditions: 786-0, 48 h, read-out: Activity
[21] = system: NCI-H23; assay: Growth inhibition of human NCI-H23 cells assessed as cell growth at 0.1 uM incubated for 48 hrs by sulforhodamine B assay relative to control; conditions: NCI-H23, 48 h, read-out: Activity
[22] = system: TK-10; assay: Growth inhibition of human TK10 cells assessed as cell growth at 0.1 uM incubated for 48 hrs by sulforhodamine B assay relative to control; conditions: TK-10, 48 h, read-out: Activity
[23] = system: U-251; assay: Growth inhibition of human U251 cells assessed as cell growth at 0.1 uM incubated for 48 hrs by sulforhodamine B assay relative to control; conditions: U-251, 48 h, read-out: Activity
[24] = system: Hs-578T; assay: Growth inhibition of human Hs 578T cells assessed as cell growth at 0.1 uM incubated for 48 hrs by sulforhodamine B assay relative to control; conditions: read-out: Activity
[25] = system: A549; assay: Growth inhibition of human A549/ATCC cells assessed as cell growth at 0.1 uM incubated for 48 hrs by sulforhodamine B assay relative to control; conditions: A549, 48 h, read-out: Activity
[26] = system: OVCAR-5; assay: Growth inhibition of human OVCAR5 cells incubated for 48 hrs by sulforhodamine B assay; conditions: OVCAR-5, 48 h
[27] = system: SNB-19; assay: Growth inhibition of human SNB19 cells assessed as cell growth at 1 uM incubated for 48 hrs by sulforhodamine B assay relative to control; conditions: SNB-19, 48 h, read-out: Activity
[28] = system: MDA-MB-435; assay: Growth inhibition of human MDA-MB-435 cells assessed as cell growth at 100 uM incubated for 48 hrs by sulforhodamine B assay relative to control; conditions: MDA-MB-435, 48 h, read-out: Activity
[29] = system: TK-10; assay: Growth inhibition of human TK10 cells assessed as cell growth at 0.01 uM incubated for 48 hrs by sulforhodamine B assay relative to control; conditions: TK-10, 48 h, read-out: Activity
[30] = system: KM12; assay: Growth inhibition of human KM12 cells assessed as cell growth at 1 uM incubated for 48 hrs by sulforhodamine B assay relative to control; conditions: KM12, 48 h, read-out: Activity
[31] = system: M14; assay: Growth inhibition of human M14 cells assessed as cell growth at 0.1 uM incubated for 48 hrs by sulforhodamine B assay relative to control; conditions: M14, 48 h, read-out: Activity
[32] = system: NCI-H226; assay: Growth inhibition of human NCI-H226 cells assessed as cell growth at 1 uM incubated for 48 hrs by sulforhodamine B assay relative to control; conditions: NCI-H226, 48 h, read-out: Activity
[33] = read-out: LC50 (the source's name)
[34] = read-out: pLC50 (the source's name) (converted)

## c1ccc2[nH]c(-c3ccc(-c4nccc5c4[nH]c4ccccc45)cc3)nc2c1
[1]; read-out: GI50
  GI50: 1.92 µM
[1]; [33]
  CC50: 9.51 µM
[1]; read-out: TGI
  TGI: 4.27 µM
[1]; read-out: pGI50 (converted)
  GI50: 1.91 µM
[1]; [34]
  CC50: 9.55 µM
[1]; read-out: pTGI (converted)
  TGI: 4.27 µM
[2]
  growth at 0.1 µM: 98%
[3]
  growth at 100 µM: 75%
[4]
  growth at 0.01 µM: 93%
[5]
  growth at 1 µM: 91%
[6]
  growth at 0.01 µM: 90%
[7]
  growth at 1 µM: 98%
[8]
  growth at 100 µM: 54%
[9]
  growth at 0.1 µM: 92%
[10]
  growth at 1 µM: 88%
[11]
  growth at 0.01 µM: 91%
[12]
  growth at 0.01 µM: 93%
[13]
  growth at 0.1 µM: 103%
[14]
  growth at 0.1 µM: 103%
[15]
  growth at 1 µM: 93%
[16]
  growth at 100 µM: 78%
[17]; read-out: GI50
  GI50: 2.12 µM
[17]; [33]
  CC50: 7.21 µM
[17]; read-out: TGI
  TGI: 5.42 µM
[17]; read-out: pGI50 (converted)
  GI50: 2.14 µM
[17]; [34]
  CC50: 72.4 µM
[17]; read-out: pTGI (converted)
  TGI: 5.37 µM
[18]
  growth at 1 µM: 81%
[19]
  growth at 0.1 µM: 96%
[20]
  growth at 100 µM: 70%
[21]
  growth at 0.1 µM: 93%
[22]
  growth at 0.1 µM: 94%
[23]
  growth at 0.1 µM: 104%
[24]
  growth at 0.1 µM: 100%
[25]
  growth at 0.1 µM: 98%
[26]; read-out: GI50
  GI50: 2.43 µM
[26]; [33]
  CC50: 5 µM
[26]; read-out: TGI
  TGI: 6.47 µM
[26]; read-out: pGI50 (converted)
  GI50: 2.45 µM
[26]; [34]
  CC50: 50.1 µM
[26]; read-out: pTGI (converted)
  TGI: 6.46 µM
[27]
  growth at 1 µM: 88%
[28]
  growth at 100 µM: 67%
[29]
  growth at 0.01 µM: 96%
[30]
  growth at 1 µM: 89%
[31]
  growth at 0.1 µM: 98%
[32]
  growth at 1 µM: 96%

## c1ccc2c3c([nH]c2c1)C(c1ccc(C2NCCc4c2[nH]c2ccccc42)cc1)NCC3 (racemic)
[1]; [33]
  CC50: 3.75 µM
[1]; read-out: pGI50 (converted)
  GI50: 0.363 µM
[1]; [34]
  CC50: 3.72 µM
[1]; read-out: pTGI (converted)
  TGI: 1.26 µM
[2]
  growth at 0.1 µM: 91%
[3]
  growth at 100 µM: 96%
[4]
  growth at 0.01 µM: 91%
[5]
  growth at 1 µM: 11%
[6]
  growth at 0.01 µM: 90%
[7]
  growth at 1 µM: 11%
[8]
  growth at 100 µM: 76%
[9]
  growth at 0.1 µM: 103%
[10]
  growth at 1 µM: 68%
[11]
  growth at 0.01 µM: 87%
[12]
  growth at 0.01 µM: 92%
[13]
  growth at 0.1 µM: 104%
[14]
  growth at 0.1 µM: 96%
[15]
  growth at 1 µM: 57%
[16]
  growth at 100 µM: 92%
[17]; read-out: GI50
  GI50: 1.11 µM
[17]; [33]
  CC50: 5.37 µM
[17]; read-out: TGI
  TGI: 2.44 µM
[17]; read-out: pGI50 (converted)
  GI50: 11.2 µM
[17]; [34]
  CC50: 53.7 µM
[17]; read-out: pTGI (converted)
  TGI: 24.5 µM
[18]
  growth at 1 µM: 48%
[19]
  growth at 0.1 µM: 90%
[20]
  growth at 100 µM: -85%
[21]
  growth at 0.1 µM: 88%
[22]
  growth at 0.1 µM: 96%
[23]
  growth at 0.1 µM: 97%
[24]
  growth at 0.1 µM: 90%
[25]
  growth at 0.1 µM: 95%
[26]; read-out: GI50
  GI50: 1.8 µM
[26]; [33]
  CC50: 9.65 µM
[26]; read-out: TGI
  TGI: 4.17 µM
[26]; read-out: pGI50 (converted)
  GI50: 1.82 µM
[26]; [34]
  CC50: 9.55 µM
[26]; read-out: pTGI (converted)
  TGI: 4.17 µM
[27]
  growth at 1 µM: 88%
[28]
  growth at 100 µM: 97%
[29]
  growth at 0.01 µM: 97%
[30]
  growth at 1 µM: 54%
[31]
  growth at 0.1 µM: 94%
[32]
  growth at 1 µM: 94%
